Each structure is given as a SMILES string. Positions of bridges follow the written chain, without caps; N, C: chain ends. Residues, ends and D or L forms follow the SMILES beside them.

The target in one experiment is T1, rat ASIC1a channel (Rattus norvegicus, UniProt P55926).
T1 construct: expressed in transfected cells; host or cells: Xenopus laevis oocytes injected with mRNA made from a pCI-rASIC1a plasmid
T1 sequence (P55926 1-526): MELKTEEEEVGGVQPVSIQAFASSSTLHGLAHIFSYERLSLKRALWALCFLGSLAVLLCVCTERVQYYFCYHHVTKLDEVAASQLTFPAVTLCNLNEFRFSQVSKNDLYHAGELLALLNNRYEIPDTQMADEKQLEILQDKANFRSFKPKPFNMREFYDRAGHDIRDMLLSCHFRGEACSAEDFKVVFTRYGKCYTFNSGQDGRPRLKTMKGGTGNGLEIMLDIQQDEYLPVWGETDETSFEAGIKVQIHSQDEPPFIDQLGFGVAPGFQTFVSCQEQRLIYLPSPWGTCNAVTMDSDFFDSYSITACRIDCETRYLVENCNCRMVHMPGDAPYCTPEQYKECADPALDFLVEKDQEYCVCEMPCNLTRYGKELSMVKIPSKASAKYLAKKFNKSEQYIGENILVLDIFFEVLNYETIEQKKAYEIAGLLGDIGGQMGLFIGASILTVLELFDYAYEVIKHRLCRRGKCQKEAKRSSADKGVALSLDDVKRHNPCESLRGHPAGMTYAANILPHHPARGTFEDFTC
As to the kind of experiment: Two-electrode voltage clamp, rat ASIC1a in X. laevis oocytes. In kind it is cell-based. As for the experimental part: Figure 3 The effect of mutant peptides S16K and A23K on rat ASIC1a and ASIC3 channels. […] (B) Dose–response curves for the inhibitory effect of mutant peptides on ASIC1a. Each data point represents data from 5 cells. (C) Representative current traces of Ugr9-1, S16K, and A23K at a concentration of 12.5 µM on ASIC3. […] Each point represents data from 5 cells. The depicted currents were induced by a pH 5.5 stimulus following a conditioning pH of 7.4, with peptides applied for 30 s before the pH stimulus. The holding potential (Vh) was −50 mV, and the time interval between applications ranged from 1 to 2 min. Data are presented as mean ± S.E.M.
A small portion of the ovary was isolated from frogs under anesthesia induced by a 0.17% solution of procaine methanesulphonate (MS222) (Sigma), followed by treatment with collagenase (1 mg/mL) at room temperature for 2 h. Oocytes at stages IV and V, devoid of follicular membranes, were transferred to ND-96 medium (containing 96 mM NaCl, 5 mM HEPES, 2 mM KCl, 1.8 mM CaCl2, 1 mM MgCl2, pH 7.4). mRNA synthesis was performed from pcDNA3.1 vectors (Invitrogen, Carlsbad, CA, USA) containing the rat ASIC3 gene, as well as pCI vectors containing genes for rat ASIC1a, its mutant analogues, and ASIC1b. mRNA (2.5–10 ng) was then injected into the oocytes. For the ASIC1a/3 heteromeric channels, the mRNA encoding the ASIC1a and ASIC3 subunits were injected in a 1:5 ratio, respectively. Subsequently, the oocytes were incubated for 2–3 days at a temperature of 17–19 °C in ND96 medium supplemented with gentamicin and streptomycin (20 µg/mL each).
Whole-cell electrophysiological recordings of ASIC channels were conducted using a two-electrode voltage-clamp setup. Microelectrodes were filled with 3 M KCl. Recordings from oocytes were carried out at a holding potential of −50 mV, with data filtered at 10 Hz and sampled at a rate of 100 Hz using an L780M ADC (LCard, Moscow, Russia). The synchronized delivery of solutions into the chamber and recording of electrophysiological results were carried out using in-house software v.2. Activation of ASIC channels occurred through rapid pH changes in the solution, achieved by replacing the working solution in the chamber with ND96-based solutions at varying pH levels. Specifically, HEPES was substituted with 10 mM MES for pH 5.5–6.5 and MOPS for pH 6.7–7.0.
Fresh peptide solutions were meticulously prepared in ND96 buffer with a pH of 7.43 immediately before experiments, with strict control over the pH levels. Peptides were applied for 30 s at a conditioning pH of 7.43 before acid stimulation of the channel. The interval between applications was maintained at a minimum of 1.5 to 2 min.
Electrophysiological data analysis was conducted using OriginPro 2018 software (OriginLab, Northampton, MA, USA). Dose–response relationships for Ugr9a-1, S16K, and A23K peptides were fitted using a Hill function: F1(x) = A − A/(1 + (x/IC50)^nH), where F1(x) represents the amplitude of the current at concentration x of the peptide, A is the maximum amplitude of the current, IC50 is the half-maximum inhibitory concentration of the peptide, and nH is the Hill coefficient.

Experiment [1] is described as follows: Acetic acid-induced writhing (AAW pain model). In kind it is in vivo, ICR mice. The note with it: for reduction of number of writhes, significance by dose: 0.002, 0.02, 0.2 mg/kg i.m. As for the experimental part: In both the AAW and CFA-induced hyperalgesia, Ugr9-1 and A23K peptides were administered intramuscularly one hour before the experiments at doses of 0.002, 0.02, and 0.2 mg/kg. In the AAW test, analgesic efficacy was evaluated by assessing the reduction in the number of involuntary writhing episodes induced by intraperitoneal injection of a 0.6% acetic acid solution.
(§1) Adult male ICR mice (Animal Breeding Facility Branch of Shemyakin–Ovchinnikov Institute of Bioorganic Chemistry, Russian Academy of Sciences, Pushchino, Russia), weighing 20–25 g, were utilized. Animals were housed under controlled conditions, with a room temperature of 23 ± 2 °C, a 12 h light–dark cycle, and ad libitum access to food and water. Test substances were dissolved in saline. Peptides (Ugr9-1 and A23K at doses of 0.002, 0.02, and 0.2 mg/kg) and saline (for the control group) were administered intramuscularly 60 min prior to testing.
(§2) The abdominal constriction test of visceral pain (acetic acid-induced writhing pain model) and hyperalgesia induced by complete Freund’s adjuvant (CFA-induced inflammatory pain model) were performed as previously described.
(§3) Statistical analysis was conducted using analysis of variance (ANOVA) with post hoc Tukey’s test, and data are presented as mean ± standard deviation (S.D.).
(In writhing tests, fewer writhes than in controls are read as antinociception.)

Experiment [2] in a line: CFA-induced hyperalgesia, hot plate test. Type of experiment: in vivo, ICR mice. The note with it: hot plate 53 °C; for prolongation of paw withdrawal time, significance by dose: 0.002, 0.02, 0.2 mg/kg i.m. As for the experimental part:
In the CFA-induced hyperalgesia test, where CFA administration induces excess sensitivity to mechanical and thermal stimuli, the analgesic effects of peptides were assessed using von Frey filaments of varying forces (von Frey test) and a hot plate apparatus (hot plate test).
as §1, §2, §3
In general terms: In hot-plate and tail-flick tests a longer latency is read as antinociception.

Setting [3] is: one hour before testing, 0.6% acetic acid i.p., n = 7.

Turning to `CC[C@H](C)[C@H](N)C(=O)N[C@@H](CO)C(=O)N[C@H](C(=O)N[C@@H](CC(=O)O)C(=O)N1CCC[C@H]1C(=O)N1CCC[C@H]1C(=O)N[C@H]1CSSC[C@@H]2NC(=O)[C@H](CC(N)=O)NC(=O)CNC(=O)[C@H](CO)NC(=O)CNC(=O)[C@H](CC(=O)O)NC(=O)[C@H](CCCNC(=N)N)NC(=O)[C@H](Cc3c[nH]cn3)NC(=O)[C@H](Cc3ccc(O)cc3)NC(=O)[C@H](CSSC[C@@H](C(=O)NCC(=O)N[C@@H](C)C(=O)N[C@H](C(=O)O)C(C)C)NC(=O)CNC(=O)[C@H](Cc3ccc(O)cc3)NC(=O)[C@H](C)NC(=O)[C@H](CC(=O)O)NC(=O)[C@H](Cc3ccc(O)cc3)NC(=O)[C@H](C(C)C)NC2=O)NC(=O)[C@H](Cc2ccccc2)NC(=O)[C@H](CCCNC(=N)N)NC1=O)[C@@H](C)CC` [Ugr9-1] (H-ISIDPPCRFCYHRDGSGNCVYDAYGCGAV-OH; disulfide 7-19, 10-26), the “effect on ASIC1a at 50 µM” value at rat ASIC1a channel (50 µM, representative current traces, pH 5.5 stimulus, conditioning pH 7.4) was “lack of effect”. Further, the “activity towards rASIC1a” value at rat ASIC1a channel (pH 5.5 stimulus, conditioning pH 7.4) is listed as “no activity”. In addition, the “inhibition of number of writhes (maximum effect)” value in experiment [1] (0.02 mg/kg i.m., one hour before testing, 0.6% acetic acid i.p., n = 7) was determined as 30%. Besides, in experiment [1] (setting [3]), the “reduction of number of writhes, significance by dose” value is reported as “significantly decreased the number of writhes at all three doses”. The “increase in paw withdrawal time (maximum effect)” value in experiment [2] (0.02 mg/kg i.m., one hour before testing, n = 7) is recorded as 106%. Also, in experiment [2] (one hour before testing, n = 7), the “prolongation of paw withdrawal time, significance by dose” value is “significantly prolonged paw withdrawal time at all doses”.

In the case of `CC[C@H](C)[C@H](N)C(=O)N[C@@H](CO)C(=O)N[C@H](C(=O)N[C@@H](CC(=O)O)C(=O)N1CCC[C@H]1C(=O)N1CCC[C@H]1C(=O)N[C@H]1CSSC[C@@H]2NC(=O)[C@H](CC(N)=O)NC(=O)CNC(=O)[C@H](CO)NC(=O)CNC(=O)[C@H](CC(=O)O)NC(=O)[C@H](CCCNC(=N)N)NC(=O)[C@H](Cc3c[nH]cn3)NC(=O)[C@H](Cc3ccc(O)cc3)NC(=O)[C@H](CSSC[C@@H](C(=O)NCC(=O)N[C@@H](C)C(=O)N[C@H](C(=O)O)C(C)C)NC(=O)CNC(=O)[C@H](Cc3ccc(O)cc3)NC(=O)[C@H](CCCCN)NC(=O)[C@H](CC(=O)O)NC(=O)[C@H](Cc3ccc(O)cc3)NC(=O)[C@H](C(C)C)NC2=O)NC(=O)[C@H](Cc2ccccc2)NC(=O)[C@H](CCCNC(=N)N)NC1=O)[C@@H](C)CC` [A23K] (H-ISIDPPCRFCYHRDGSGNCVYDKYGCGAV-OH; disulfide 7-19, 10-26), at rat ASIC1a channel (10 µM, pH 5.5 stimulus, conditioning pH 7.4, peptide 30 s, mean ± SEM, n = 5, read-out: inhibitory effect on wild-type ASIC1a), the inhibition at 10 µM came out at 74.9 ± 6.5%. Besides, the “activity on ASIC1a compared to S16K” value on rat ASIC1a channel (A23K versus S16K) was “over three times more active than S16K”. For the same compound, the “Hill slope (nH)” value at rat ASIC1a channel (inhibition of rat ASIC1a, pH 5.5 stimulus, conditioning pH 7.4, mean ± S.E.M., 5 cells) was found to be 2.84 ± 0.31. Besides, the IC50 at rat ASIC1a channel (rat ASIC1a, X. laevis oocytes, TEVC, Vh −50 mV, pH 5.5 stimulus, conditioning pH 7.4, peptide 30 s before stimulus, mean ± S.E.M., 5 cells, read-out: half-maximal inhibitory concentration (IC50)) came to 6.72 µM. Moreover, the “reduction of writhing, times less effective than Ugr9-1” value in experiment [1] (0.02 mg/kg i.m., versus Ugr9-1) is reported as 1.5 times. In addition, the “reduction of number of writhes, significance by dose” value in experiment [1] (setting [3]) was “significant reduction in writhing episodes only at a dose of 0.02 mg/kg”. Also, in experiment [2] (one hour before testing, n = 7), the “prolongation of paw withdrawal time, significance by dose” value was “effects only at doses of 0.02 and 0.2 mg/kg”. Also, the “paw withdrawal time effect compared to Ugr9-1” value in experiment [2] (versus Ugr9-1) is on record as “two times less effective than Ugr9-1”.

(Values after paper PMC11432795, “Mutagenesis of the Peptide Inhibitor of ASIC3 Channel Introduces Binding to Thumb Domain of ASIC1a but Reduces Analgesic Activity” (Marine Drugs, 2024).)
